Measurements taken from the NIST ThermoML archive (doi:10.1021/acs.jced.8b00610).
Several values for one entry are separate records, joined by “and”; a condition that tells them apart may be missing. Equal entries are not always repeated. ± gives the expanded uncertainty stated by the source.

Conditions: Liquid, Ebulliometric method (Recirculating still)

CC(C)O [propan-2-ol]
vapor or sublimation pressure (355.7 K): 101.3 ± 1.4 kPa and 101.32 ± 10 kPa

O [water]
vapor or sublimation pressure (373.1 K): 101.3 ± 1.4 kPa
